Measured values taken from US10588315B2, “Fungicidal compositions” (Syngenta Participations AG, priority 2012, dated 2020).
Several values for one entry are separate records, joined by “and”; a condition that tells them apart may be missing. Equal values may be shown once. Read-outs that look alike come from different tables or passages of the source.

Tests used:
Format in all cases: cell-based
[1] = system: Thanatephorus cucumeris (Rhizoctonia solani); test: Thanatephorus cucumeris (Rhizoctonia solani) / liquid culture; details: for inhibition at 0.1 ppm: 1.001 0.1000 ppm; for inhibition at 0.05 ppm: 1.001 0.0500 ppm
Protocol: (§1) Mycelia fragments or conidia suspensions of a fungus, prepared either freshly from liquid cultures of the fungus or from cryogenic storage, were directly mixed into nutrient broth. DMSO solutions of the test compound (max. 10 mg/ml) was diluted with 0.025% Tween20 by factor 50 and 10 μl of this solution was pipetted into a microtiter plate (96-well format). The nutrient broth containing the fungal spores/mycelia fragments was then added to give an end concentration of the tested compound. The test plates were incubated in the dark at 24° C. and 96% rh. The inhibition of fungal growth was determined photometrically and visually after 2-4 days, depending on the pathosystem, and percent antifungal activity relative to the untreated check was calculated.
Mycelia fragments of a newly grown liquid culture of the fungus were directly mixed into nutrient broth (PDB potato dextrose broth). After placing a (DMSO) solution of the test compounds into a microtiter plate (96-well format), the nutrient broth containing the fungal material was added.

[2] = system: Fusarium culmorum; test: Fusarium culmorum / liquid culture
Protocol: as §1, with “The nutrient broth containing the fungal spores/mycelia fragments was then added to give an end concentration of the tested compound.” left out
(§2) Conidia of the fungus from cryogenic storage were directly mixed into nutrient broth (PDB potato dextrose broth). After placing a (DMSO) solution of test compound into a microtiter plate (96-well format), the nutrient broth containing the fungal spores was added.

[3] = system: Monographella nivalis (Microdochium nivale); test: Monographella nivalis (Microdochium nivale) / liquid culture; details: for inhibition at 0.025 ppm: 1.001 0.0250 ppm; for inhibition at 0.05 ppm: 1.001 0.0500 ppm
Protocol: as §1, §2

[4] = system: Alternaria solani; test: Alternaria solani / liquid culture; details: for inhibition at 0.0031 ppm: 1.001 0.0031 ppm
Protocol: as §1, §2

[5] = system: Mycosphaerella graminicola (Septoria tritici); test: Mycosphaerella graminicola (Septoria tritici) / liquid culture; details: Zymoseptoria tritici, read-out: observed % activity; for inhibition at 0.0031 ppm: 1.001 0.0031 ppm; for inhibition at 0.0016 ppm: 1.001 0.0016 ppm; for inhibition at 0.0008 ppm: 1.001 0.0008 ppm
Protocol: as §1, §2

[6] = system: Botryotinia fuckeliana (Botrytis cinerea); test: Botryotinia fuckeliana (Botrytis cinerea) / liquid culture
Protocol: as §1, with “The nutrient broth containing the fungal spores/mycelia fragments was then added to give an end concentration of the tested compound.” left out
Conidia of the fungus from cryogenic storage were directly mixed into nutrient broth (Vogels broth). After placing a (DMSO) solution of test compound into a microtiter plate (96-well format), the nutrient broth containing the fungal spores was added.

[7] = Thanatephorus cucumeris, B5.5, read-out: observed % activity
[8] = Monographella nivalis, B1.3, read-out: observed % activity
[9] = Monographella nivalis, B2.3, read-out: observed % activity
[10] = Monographella nivalis, B5.4, read-out: observed % activity

Structure (SMILES): CON(C(=O)c1cn(C)nc1C(F)F)C(C)Cc1c(Cl)cc(Cl)cc1Cl (centres unmarked) [Compound 1.001, 3-(difluoromethyl)-N-methoxy-1-methyl-N-[1-methyl-2-(2,4,6-trichlorophenyl)ethyl]pyrazole-4-carboxamide]
- observed % activity ([1]; 1.001 0.0250 ppm): 8%
- inhibition at 0.0031 ppm ([1]; Thanatephorus cucumeris, 1.001 0.0031 ppm, read-out: observed % activity): 5%
- inhibition at 0.0063 ppm ([1]; Thanatephorus cucumeris, 1.001 0.0063 ppm, read-out: observed % activity): 0%
- inhibition at 0.0125 ppm ([1]; Thanatephorus cucumeris, B1.4, 1.001 0.0125 ppm, read-out: observed % activity): 0%
- inhibition at 0.025 ppm ([1]; Thanatephorus cucumeris, B1.4, 1.001 0.0250 ppm, read-out: observed % activity): 6%
- inhibition at 0.1 ppm ([1]; Thanatephorus cucumeris, B1.4, read-out: observed % activity): 0%
- inhibition at 0.025 ppm ([1]; Thanatephorus cucumeris, B5.5, 1.001 0.0250 ppm, read-out: observed % activity): 13%
- inhibition at 0.05 ppm [1, 7]: 1%
- inhibition at 0.1 ppm [1, 7]: 17%
- inhibition at 0.05 ppm ([1]; Thanatephorus cucumeris, B9.3, read-out: observed % activity): 0%
- inhibition at 0.2 ppm ([1]; Thanatephorus cucumeris, B9.3, 1.001 0.2000 ppm, read-out: observed % activity): 6%
- observed % activity ([2]; 1.001 0.0125 ppm): 11% and 16% and 7% and 10% and 6%
- observed % activity ([2]; 1.001 0.0250 ppm): 24% and 28% and 34%
- observed % activity ([2]; 1.001 0.0500 ppm): 46% and 54%
- observed % activity ([2]; 1.001 0.1000 ppm): 50% and 56% and 52% and 57%
- inhibition at 0.0063 ppm ([2]; Fusarium culmorum, 1.001 0.0063 ppm, read-out: observed % activity): 9%
- inhibition at 0.05 ppm ([2]; Fusarium culmorum, 1.001 0.0500 ppm (Table B54), read-out: observed % activity): 51%
- inhibition at 0.05 ppm ([2]; Fusarium culmorum, 1.001 0.0500 ppm, read-out: observed % activity): 49%
- inhibition at 0.1 ppm ([2]; Fusarium culmorum, 1.001 0.1000 ppm (Table B54), read-out: observed % activity): 55%
- inhibition at 0.1 ppm ([2]; Fusarium culmorum, 1.001 0.1000 ppm, read-out: observed % activity): 58%
- inhibition at 0.2 ppm ([2]; Fusarium culmorum, 1.001 0.2000 ppm (Table B54), read-out: observed % activity): 60%
- inhibition at 0.2 ppm ([2]; Fusarium culmorum, 1.001 0.2000 ppm, read-out: observed % activity): 60%
- inhibition at 0.025 ppm ([2]; Fusarium culmorum, B3.3, 1.001 0.0250 ppm, read-out: observed % activity): 19%
- inhibition at 0.05 ppm ([2]; Fusarium culmorum, B3.3, 1.001 0.0500 ppm, read-out: observed % activity): 48%
- inhibition at 0.1 ppm ([2]; Fusarium culmorum, B3.3, 1.001 0.1000 ppm, read-out: observed % activity): 55%
- inhibition at 0.2 ppm ([2]; Fusarium culmorum, B3.3, 1.001 0.2000 ppm, read-out: observed % activity): 59%
- inhibition at 0.025 ppm ([2]; Fusarium culmorum, B5.3, 1.001 0.0250 ppm, read-out: observed % activity): 9%
- inhibition at 0.05 ppm ([2]; Fusarium culmorum, B5.3, 1.001 0.0500 ppm, read-out: observed % activity): 39%
- observed % activity ([3]; 1.001 0.0016 ppm): 4%
- observed % activity ([3]; 1.001 0.0031 ppm): 10% and 6%
- observed % activity ([3]; 1.001 0.0125 ppm): 4%
- observed % activity ([3]; 1.001 0.1000 ppm): 61%
- observed % activity ([3]; 1.001 0.2000 ppm): 90% and 87% and 79%
- inhibition at 0.004 ppm ([3]; Monographella nivalis, 1.001 0.004 ppm, read-out: observed % activity): 0%
- inhibition at 0.1 ppm ([3]; Monographella nivalis, 1.001 0.1000 ppm (Table B54), read-out: observed % activity): 22%
- inhibition at 0.1 ppm ([3]; Monographella nivalis, 1.001 0.1000 ppm (Table B55), read-out: observed % activity): 19%
- inhibition at 0.2 ppm ([3]; Monographella nivalis, 1.001 0.2000 ppm, read-out: observed % activity): 85%
- inhibition at 0.0125 ppm ([3]; Monographella nivalis, B1.3, 1.001 0.0125 ppm, read-out: observed % activity): 0%
- inhibition at 0.025 ppm [3, 8]: 5%
- inhibition at 0.05 ppm [3, 8]: 45%
- inhibition at 0.2 ppm ([3]; Monographella nivalis, B1.3, 1.001 0.2000 ppm, read-out: observed % activity): 78%
- inhibition at 0.025 ppm [3, 9]: 0%
- inhibition at 0.05 ppm [3, 9]: 26%
- inhibition at 0.0008 ppm ([3]; Monographella nivalis, B3.4, 1.001 0.0008 ppm, read-out: observed % activity): 1%
- inhibition at 0.05 ppm ([3]; Monographella nivalis, B4.3, read-out: observed % activity): 15%
- inhibition at 0.1 ppm ([3]; Monographella nivalis, B4.3, 1.001 0.1000 ppm, read-out: observed % activity): 64%
- inhibition at 0.025 ppm [3, 10]: 2%
- inhibition at 0.05 ppm [3, 10]: 9%
- inhibition at 0.1 ppm ([3]; Monographella nivalis, B5.4, 1.001 0.1000 ppm, read-out: observed % activity): 60%
- inhibition at 0.0016 ppm ([3]; Monographella nivalis, B6.3, 1.001 0.0016 ppm, read-out: observed % activity): 0%
- inhibition at 0.0031 ppm ([3]; Monographella nivalis, B6.3, 1.001 0.0031 ppm, read-out: observed % activity): 3%
- observed % activity ([4]; 1.001 0.0004 ppm): 11% and 10%
- observed % activity ([4]; 1.001 0.0008 ppm): 24%
- observed % activity ([4]; 1.001 0.0016 ppm): 40% and 46%
- inhibition at 0.0004 ppm ([4]; Alternaria solani, 1.001 0.0004 ppm, read-out: observed % activity): 9%
- inhibition at 0.0063 ppm ([4]; Alternaria solani, 1.001 0.0063 ppm, read-out: observed % activity): 75%
- inhibition at 0.0008 ppm ([4]; Alternaria solani, B1.2, 1.001 0.0008 ppm, read-out: observed % activity): 4%
- inhibition at 0.0016 ppm ([4]; Alternaria solani, B1.2, 1.001 0.0016 ppm, read-out: observed % activity): 32%
- inhibition at 0.0031 ppm ([4]; Alternaria solani, B1.2, read-out: observed % activity): 64%
- inhibition at 0.0016 ppm ([4]; Alternaria solani, B2.2, 1.001 0.0016 ppm, read-out: observed % activity): 39%
- inhibition at 0.0016 ppm ([4]; Alternaria solani, B3.2, 1.001 0.0016 ppm, read-out: observed % activity): 45%
- inhibition at 0.0031 ppm ([4]; Alternaria solani, B3.2, read-out: observed % activity): 66%
- inhibition at 0.0008 ppm ([4]; Alternaria solani, B4.2, 1.001 0.0008 ppm, read-out: observed % activity): 29%
- inhibition at 0.0016 ppm ([4]; Alternaria solani, B4.2, 1.001 0.0016 ppm, read-out: observed % activity): 47%
- inhibition at 0.0031 ppm ([4]; Alternaria solani, B4.2, read-out: observed % activity): 73%
- inhibition at 0.0008 ppm ([4]; Alternaria solani, B5.2, 1.001 0.0008 ppm, read-out: observed % activity): 3%
- inhibition at 0.0016 ppm ([4]; Alternaria solani, B5.2, 1.001 0.0016 ppm, read-out: observed % activity): 36%
- inhibition at 0.0031 ppm ([4]; Alternaria solani, B5.2, read-out: observed % activity): 75%
- inhibition at 0.0016 ppm ([4]; Alternaria solani, B6.2, 1.001 0.0016 ppm, read-out: observed % activity): 35%
- inhibition at 0.0031 ppm ([4]; Alternaria solani, B6.2, read-out: observed % activity): 71%
- inhibition at 0.0016 ppm ([4]; Alternaria solani, B9.2, 1.001 0.0016 ppm, read-out: observed % activity): 37%
- inhibition at 0.0031 ppm ([4]; Alternaria solani, B9.2, read-out: observed % activity): 67%
- inhibition at 0.0004 ppm ([5]; 1.001 0.0004 ppm): 9%
- inhibition at 0.0031 ppm [5]: 88%
- inhibition at 0.0016 ppm ([5]; B1.5): 52%
- inhibition at 0.0016 ppm ([5]; B3.5): 42%
- inhibition at 0.0031 ppm ([5]; B3.5): 83%
- inhibition at 0.0008 ppm ([5]; B5.6): 27%
- inhibition at 0.0016 ppm ([5]; B5.6): 45%
- inhibition at 0.0031 ppm ([5]; B5.6): 82%
- inhibition at 0.0008 ppm ([5]; B6.4): 11%
- inhibition at 0.0016 ppm ([5]; B6.4): 53%
- inhibition at 0.0031 ppm ([5]; B6.4): 89%
- observed % activity ([6]; 1.001 0.0031 ppm): 76%
- observed % activity ([6]; 1.001 0.0063 ppm): 69% and 63% and 85% and 64% and 88% and 74% and 87%
- observed % activity ([6]; 1.001 0.0125 ppm): 84% and 88%
- inhibition at 0.0016 ppm ([6]; Botrytis cinerea, 1.001 0.0016 ppm (Table B55), read-out: observed % activity): 38%
- inhibition at 0.0031 ppm ([6]; Botrytis cinerea, 1.001 0.0031 ppm (Table B54), read-out: observed % activity): 75%
- inhibition at 0.0031 ppm ([6]; Botrytis cinerea, 1.001 0.0031 ppm (Table B55), read-out: observed % activity): 53%
- inhibition at 0.0063 ppm ([6]; Botrytis cinerea, 1.001 0.0063 ppm (Table B54), read-out: observed % activity): 89%
- inhibition at 0.0063 ppm ([6]; Botrytis cinerea, 1.001 0.0063 ppm (Table B55), read-out: observed % activity): 66%
- inhibition at 0.0125 ppm ([6]; Botrytis cinerea, 1.001 0.0125 ppm, read-out: observed % activity): 83%
